Measured values: patent publication US8796246B2, “9, 10-secopregnane derivative and pharmaceutical” (Nippon Shinyaku Co., Ltd., priority 2006, dated 2014)
pEC50: −log10 of the molar value.

Experiments:
[1] = Action to increase the urinary excretion of calcium (1), percutaneous administration; assay type: in vivo, SD male rats; details: percutaneous 10 μg/200 μL/kg/day once a day for 4 days; for Calcium in Urine within 24 hours: accumulated excretion 0 to 24 hours; for Calcium in Urine within 48 hours: accumulated excretion 0 to 48 hours; for Calcium in Urine within 72 hours: accumulated excretion 0 to 72 hours; for Calcium in Urine within 96 hours: accumulated excretion 0 to 96 hours
Experimental: The compound of the invention mentioned in Example 1, 36, 43, 47, 48, 55 or 70 or maxacalcitol in ethanol containing 0.5% DMSO was repeatedly subjected to a percutaneous administration (10 μg/200 μL/kg/day) once a day for 4 days onto the back of SD male rats (7 weeks of age). Ethanol containing 0.5% DMSO was administered to a control group. The calcium concentration in urine collected every 24 hours was measured and multiplied by the amount of urine to calculate the urinary excretion of calcium. The calcium excretion in urine shown in Table 3 indicates the accumulated calcium excretion from 0 to 24 hours, from 0 to 48 hours, from 0 to 72 hours, and from 0 to 96 hours.

[2] = tested on: human acute myelogenous leukemia cell line HL-60; test: Ability to induce differentiation of HL-60 cells (oxygen radical production after phorbol ester, WST-1); assay type: cell-based; details: 72 hours incubation, then WST-1 and phorbol 12,13-didecanoate for 4 hours, absorbance at 450 nm
From the text: It is known that the human acute myelogenous leukemia cell line HL-60is differentiated into neutrophil-like cells by active vitamin D or the like. Thus, the cells after the differentiation begin to express a surface marker such as CD11and CD32and, at the same time, they produce an oxygen radical by stimulation with a phorbol ester or the like. In this test, the above-mentioned property was utilized. As an index of the ability to induce differentiation of the HL-60cells, the amount of the oxygen radical produced by stimulation with a phorbol ester was measured, and the compounds of the invention mentioned in Examples were compared with maxacalcitol with respect to the vitamin D3activity thereof. In use of commercial reagents and kits, if any, the indications attached thereto were referred to.
HL-60cells (supplied from ATCC) were seeded on a 96-well plate at 5×10^3cells/100μL/well and a test compound in two-fold dilution series from 10^−7M was added to the second to the twelfth rows (maximum concentration: the second row). The first row was used for blank. After incubation for 72 hours under a moisturized condition in the presence of 5% CO2 at 37° C. using a CO2 incubator, 10 μL of PBS containing 50 mM WST-1 (manufactured by Takara Bio) and 10 μM phorbol 12,13-didecanoate (manufactured by SIGMA) were added to each well followed by further incubation for 4 hours. Absorbance (reference wavelength: […]) at […] of the WST-1 formazane dye generated by conversion from WST-1 by oxygen radical produced from the differentiated HL-60 cells was measured by a Benchmark microplate reader (manufactured by BioRad). An absorbance meter control software MPM3 (manufactured by BioRad) was used and, from a concentration-absorbance curve, the 50%-maximal effective concentration (hereinafter, referred to as “EC50”) of each was determined by a logistic curve regression.

[3] = Metabolic rate in human liver microsome; assay type: in vitro ADME; details: pooled human liver microsome 1 mg/mL protein, NADPH-regenerating system, 37° C., 2-60 minutes, HPLC
Experimental: The compounds of the invention mentioned in Examples and maxacalcitol were compared with each other with respect to the metabolic rate in human liver microsome.
As to the pooled human liver microsome (HHM-0323), those manufactured by Tissue Transformation Technologies were used. A 0.25 M potassium phosphate buffer (pH 7.4) (200 μL), 5 μL of a 250 μM solution of each compound to be tested in DMSO, 50 μL of an NADPH-regenerating system (where 20 mg of β-NADP^+, 70 mg of glucose-6-phosphate, 40 units of glucose-6-phosphate dehydrogenase and 20 mg of magnesium chloride were dissolved in 1 mL of distilled water) and 220 μL of distilled water were added to a microtube and the mixture was subjected to a preincubation for 5 minutes at 37° C. Reaction was started by an addition of 25 μL of human liver microsome (final concentration of protein: 1 mg/mL). Incubation was performed for 2, 10, 30 or 60 minutes and the reaction was stopped by an addition of 500 μL of acetonitrile. After centrifugation at 13,000 rpm for 5 minutes, each test compound in the supernatant (25 μL) was measured by HPLC under the following conditions.
Inertsil ODS-3 (4.6×150 mm; GL Science) was used as a column. With regard to the mobile phase, a solution A (acetonitrile/0.1% aqueous solution of ammonium acetate=10/90) and a solution B (acetonitrile/0.1% aqueous solution of ammonium acetate=90/10) were used under the linear gradient conditions mentioned in Tables 5 to 7. The column temperature, the flow rate and the wavelength for detection were set at 40° C., 1.0 mL/min. and UV 250 or 270 nm, respectively.
The compound mentioned in Example 38 was analyzed under the condition shown in Table 6; the compounds mentioned in Examples 55, 56, 68, 69, 72 and 73 were under the condition shown in Table 7; and the other compounds were under the condition shown in Table 5.
The compounds described in Examples 40, 43 to 48, 50, 55, 56, 58, 60, 61, 63 and 65 to 73 were analyzed under the condition of UV 250 nm; and the other compounds were under the condition of UV 270 nm.
From the HPLC test results as above, the metabolic rate of the test compound was calculated.

| Calcium in Urine within 24 hours [1] [mg] | Calcium in Urine within 48 hours [1] [mg] | Calcium in Urine within 72 hours [1] [mg] | Calcium in Urine within 96 hours [1] [mg] | pEC50 [2] | Metabolic Rate [3] [pmol/min/mg] | SMILES |
| --- | --- | --- | --- | --- | --- | --- |
| 1.4 | 1.9 | 2.7 | 3.7 | 9.89 | 60 | C=C1/C(=C\C=C2/CCC[C@]3(C)C([C@H](C)OC(=O)CCC(C)(O)C(F)(F)F)=CC[C@@H]23)C[C@@H](O)C[C@@H]1O (single isomer, unassigned) [Compound of Example 70, (1S,3R,20S)-20-[(4R) or (4S)-5,5,5-trifluoro-4-hydroxy-4-methylpentanoyloxy]-9,10-secopregna-5Z,7E,10(19),16-tetraene-1,3-diol] |
| 1.2 | 1.9 | 3.3 | 4.6 | 9.35 | 74 | CC(OC(=O)CCC(C)(O)C(F)(F)F)C1CCC2C(=CC=C3CC(O)CC(O)C3)CCCC21C [Compound of Example 43, (1R,3R,20S)-19-nor-20-(5,5,5-trifluoro-4-hydroxy-4-methylpentanoyloxy)-9,10-secopregna-5Z,7E-diene-1,3-diol] |
|  |  |  |  | 9.60 | 95 | C=C1C(O)CC(=CC=C2CCCC3(C)C2CCC3C(C)OC(=O)CCC(C)(O)C(F)(F)F)CC1O [Compound of Example 44, (1R,3R,20S)-2-methylene-19-nor-20-(5,5,5-trifluoro-4-hydroxy-4-methylpentanoyloxy)-9,10-secopregna-5Z,7E-diene-1,3-diol] |
|  |  |  |  | 9.51 | 40 | C=C1C(O)CC(=CC=C2CCCC3(C)C2CCC3C(C)OC(=O)C=CC(O)(CC)CC)CC1O [Compound of Example 45, (1R,3R,20S)-2-methylene-19-nor-20-[(2E)-4-ethyl-4-hydroxyhex-2-enoyloxy]-9,10-secopregna-5Z,7E-diene-1,3-diol] |
|  |  |  |  | 8.85 | 45 | CC(OC(=O)CCC(C)(C)O)C1=CCC2C(=CC=C3CC(O)CC(O)C3)CCCC12C [Compound of Example 46, (1R,3R,20S)-19-nor-20-(4-hydroxy-4-methylpentanoyloxy)-9,10-secopregna-5Z,7E,16-triene-1,3-diol] |
|  |  |  |  | 10.37 | 45 | CC(OC(=O)CCC(C)(C)O)C1CCC2C(=CC=C3CC(O)C(C)C(O)C3)CCCC21C [Compound of Example 50, (1R,2α,3R,20S)-2-methyl-19-nor-20-(4-hydroxy-4-methylpentanoyloxy)-9,10-secopregna-5Z,7E-diene-1,3-diol] |
|  |  |  |  | 9.33 | 102 | C=C1C(O)CC(=CC=C2CCCC3(C)C(C(C)OC(=O)CCC(C)(O)C(F)(F)F)=CCC23)CC1O [Compound of Example 56, (1R,3R,20S)-19-nor-2-methylene-20-[(4R)-5,5,5-trifluoro-4-hydroxy-4-methylpentanoyloxy]-9,10-secopregna-5Z,7E,16-triene-1,3-diol] |
|  |  |  |  | 9.28 | 29 | CC1[C@H](O)CC(=C/C=C2\CCC[C@]3(C)[C@@H]([C@H](C)OC(=O)CCCC(C)(C)O)CC[C@@H]23)C[C@H]1O (stereo partly drawn) [Compound of Example 58, (1R,2α,3R,20S)-2-methyl-19-nor-20-(5-hydroxy-5-methylhexanoyloxy)-9,10-secopregna-5Z,7E-diene-1,3-diol] |
|  |  |  |  | 10.28 | 78 | CC(OC(=O)CCC(C)(O)C(F)(F)F)C1CCC2C(=CC=C3CC(O)C(C)C(O)C3)CCCC21C [Compound of Example 60, (1R,2α,3R,20S)-2-methyl-19-nor-20-(5,5,5-trifluoro-4-hydroxy-4-methylpentanoyloxy)-9,10-secopregna-5Z,7E-diene-1,3-diol] |
|  |  |  |  | 9.64 | 24 | CC(OC(=O)CCC(C)(C)O)C1=CCC2C(=CC=C3CC(O)C(C)C(O)C3)CCCC12C [Compound of Example 62, (1R,2α,3R,20S)-19-nor-2-methyl-20-(4-hydroxy-4-methylpentanoyloxy)-9,10-secopregna-5Z,7E,16-triene-1,3-diol] |
|  |  |  |  | 9.54 | 29 | CCC(O)(C=CC(=O)OC(C)C1CCC2C(=CC=C3CC(O)C(C)C(O)C3)CCCC21C)CC [Compound of Example 65, (1R,2α,3R,20S)-2-methyl-19-nor-20-[(2E)-4-ethyl-4-hydroxyhex-2-enoyloxy]-9,10-secopregna-5Z,7E-diene-1,3-diol] |
|  |  |  |  | 9.82 | 38 | CCC(O)(CC)CCC(=O)OC(C)C1CCC2C(=CC=C3CC(O)C(C)C(O)C3)CCCC21C [Compound of Example 67, (1R,2α,3R,20S) -2-methyl-19-nor-20-[4-ethyl-4-hydroxyhexanoyloxy]-9,10-secopregna-5Z,7E-diene-1,3-diol] |
|  |  |  |  | 9.64 | 126 | CC(OC(=O)CCC(C)(O)C(F)(F)F)C1=CCC2C(=CC=C3CC(O)CC(O)C3)CCCC12C [Compound of Example 68, (1R,3R,20S)-19-nor-20-[(4S)-5,5,5-trifluoro-4-hydroxy-4-methylpentanoyloxy]-9,10-secopregna-5Z,7E,16-triene-1,3-diol] |
|  |  |  |  | 9.11 | 86 | C[C@H](OC(=O)CC[C@@](C)(O)C(F)(F)F)C1=CC[C@H]2/C(=C/C=C3C[C@@H](O)C[C@H](O)C3)CCC[C@]12C [Compound of Example 69, (1R,3R,20S)-19-nor-20-[(4R)-5,5,5-trifluoro-4-hydroxy-4-methylpentanoyloxy]-9,10-secopregna-5Z,7E,16-triene-1,3-diol] |
|  |  |  |  | 9.77 | 111 | CC(OC(=O)CCC(C)(O)C(F)(F)F)C1CCC2C(=CC=C3CC(O)CC(O)C3)CCCC21C [Compound of Example 72, (1R,3R,20S)-19-nor-20-[(4S)-5,5,5-trifluoro-4-hydroxy-4-methylpentanoyloxy]-9,10-secopregna-5Z,7E-diene-1,3-diol] |
|  |  |  |  | 8.89 | 63 | CC(OC(=O)CCC(C)(O)C(F)(F)F)C1CCC2C(=CC=C3CC(O)CC(O)C3)CCCC21C [Compound of Example 73, (1R,3R,20S)-19-nor-20-[(4R)-5,5,5-trifluoro-4-hydroxy-4-methylpentanoyloxy]-9,10-secopregna-5Z,7E-diene-1,3-diol] |
